Read-outs that look alike come from different tables or passages of the source.
Tests used:
[1] = system: Wheat pink snow mold (Microdochium nivale); test: Anti-bacterial effect on various microorganisms (plate medium), M.n; type: cell-based
[2] = system: Rice bacterial seeding blight (Rhizopus oryzae); test: Anti-bacterial effect on various microorganisms (plate medium), R.o; type: cell-based
[3] = system: Barley loose smut (Ustilago nuda); test: Anti-bacterial effect on various microorganisms (plate medium), U.n; type: cell-based
[4] = system: Wheat Septoria nodorum blotch microorganism (Phaeosphaeria nodorum); test: Anti-bacterial effect on various microorganisms (plate medium), P.n; type: cell-based
[5] = system: Rice bakanae disease (Giberella fujikuroi); test: Anti-bacterial effect on various microorganisms (plate medium), G.f; type: cell-based
[6] = system: Alternaria blotch (Alternaria alternata); test: Anti-bacterial effect on various microorganisms (plate medium), A.m; type: cell-based
[7] = system: Sclerotinia rot (Sclerotinia sclerotiorum); test: Anti-bacterial effect on various microorganisms (plate medium), S.s; type: cell-based
[8] = system: Wheat fusarium blight (Fusarium graminearum); type: cell-based
[9] = system: wheat-brown-rust-causing microorganisms; test: Controlling effect on wheat brown rust (spray, pot test); type: in vivo, Puccinia recondita; conditions: 1 mg/L sprayed at 1,000 L/ha, wheat NORIN No. 61, 9 to 14 days after inoculation
Procedure: Onto a wheat plant (cultivar: NORIN No. 61) grown to the two-leaf stage with use of a square plastic pot (6 cm×6 cm), a wettable formulation such as Formulation Example 1 which was diluted and suspended in water at a concentration of 1 mg/L was sprayed at a rate of 1,000 L/ha. The sprayed leaves were air-dried, and inoculated with spore suspension of wheat-brown-rust-causing microorganisms (adjusted at 200 spores/vision, […] was added at 60 ppm) by spraying, and kept at 25° C. and a high humidity for 48 hours. Thereafter, the plant was kept in a greenhouse. Nine to fourteen days after inoculation, the wheat brown rust lesion degree was evaluated. The protective value was calculated by the following equation. Protective value (%)=(1-mean lesion degree in sprayed plot/mean lesion degree in unsprayed plot)×100 [table] [table]

[10] = system: Wheat eye spot (Pseudocercoporella herpotrichoides); test: Anti-bacterial effect on various microorganisms (plate medium), P.h; type: cell-based
[11] = system: Cucumber fusarium wilt (Fusarium oxysporum); test: Anti-bacterial effect on various microorganisms (plate medium), F.c; type: cell-based
[12] = system: wheat leaf blight-causing microorganisms; test: Anti-bacterial effect on wheat leaf blight-causing microorganisms (PDA plate, mycelial growth inhibition); type: cell-based, Septoria tritici; conditions: 1.25 mg/L in PDA plate medium, 25° C., 14 days
Procedure: In Test Examples, an anti-bacterial effect of a compound in accordance with the present invention on the wheat leaf blight-causing microorganisms was tested, and was compared with the anti-bacterial effect of a comparative compound (1).
A dimethyl sulfoxide solution (0.6 ml) containing a compound in accordance with the present invention was added to a PDA medium (potato dextrose agar medium) (60 ml) having about 60° C., and the resultant mixture was mixed thoroughly in a 100-ml conical flask. The mixture was poured into a dish, and was solidified. […]
On the other hand, a subject microorganism previously cultured on a plate medium was cut out with use of a cork borer whose diameter was 4 mm, and the wheat leaf blight-causing microorganism on the plate medium thus cut out was inoculated to the chemical-containing plate medium described above. After such inoculation, the chemical-containing plate medium was incubated at 25° C. for 14 days, and then diameters of its flora were measured. A % mycelial growth inhibition was calculated with use of the formula. R=100(dc−dt)/dc (where R=% mycelial extension inhibition, dc=flora diameter in untreated plate, dt=flora diameter in treated plate)
The results obtained as described above were evaluated on a five-point scale according to the following criteria.
• 5: % Mycerial growth inhibition of 80% or higher • 4: % Mycerial growth inhibition of less than 80 to 60% or higher • 3: % Mycerial growth inhibition of less than 60 to 40% or higher • 2: % Mycerial growth inhibition of less than 40 to 20% or higher • 1: % Mycerial growth inhibition of less than 20%

[13] = system: Barley leaf blotch (Rhynchosporium secalis); test: Anti-bacterial effect on various microorganisms (plate medium), R. sec; type: cell-based
[14] = system: Gray mold (Botritis cinerea); test: Anti-bacterial effect on various microorganisms (plate medium), B.c; type: cell-based
[15] = system: Rice blast (Pyricularia oryzae); type: cell-based

SMILES | Growth inhibition grade M.n ([1]; 1.25 mg/L) | Growth inhibition grade M.n ([1]; 5 mg/L) | Growth inhibition grade R.o ([2]; 1.25 mg/L) | Growth inhibition grade R.o ([2]; 5 mg/L) | Growth inhibition grade U.n ([3]; 1.25 mg/L) | Growth inhibition grade U.n ([3]; 5 mg/L) | Growth inhibition grade P.n ([4]; 1.25 mg/L) | Growth inhibition grade P.n ([4]; 5 mg/L) | Growth inhibition grade G.f ([5]; 1.25 mg/L) | Growth inhibition grade G.f ([5]; 5 mg/L) | Growth inhibition grade A.m ([6]; 1.25 mg/L) | Growth inhibition grade A.m ([6]; 5 mg/L) | Growth inhibition grade S.s ([7]; 1.25 mg/L) | Growth inhibition grade S.s ([7]; 5 mg/L) | Growth inhibition grade F.g ([8]; 1.25 mg/L) | Growth inhibition grade F.g ([8]; 5 mg/L) | Protective value [9] | Growth inhibition grade P.h ([10]; 1.25 mg/L) | Growth inhibition grade P.h ([10]; 5 mg/L) | Growth inhibition grade F.c ([11]; 1.25 mg/L) | further results
COC[C@]1(CCl)CC[C@H](Cc2ccc(Cl)cc2)[C@]1(O)Cn1cncn1 (racemic) [Compound I-16b, (1RS,2RS,5RS)-5-(4-chlorobenzyl)-2-chloromethyl-2-methoxymethyl-1H-[1,2,4]triazole-1-ylmethylcyclopentanol] | 3 (% Mycerial growth inhibition of less than 60 to 40% or higher) | 5 (% Mycerial growth inhibition of 80% or higher) | 5 (% Mycerial growth inhibition of 80% or higher) | 5 (% Mycerial growth inhibition of 80% or higher) | – | – | – | – | – | – | – | – | – | – | – | – | – | – | – | – | –
COC[C@]1(CCl)CC[C@@H](Cc2ccc(F)cc2)[C@]1(O)Cn1cncn1 (racemic) [Compound I-170, (1RS,2RS,5SR)-5-(4-fluorobenzyl)-2-chloromethyl-2-methoxymethyl-1H-[1,2,4]triazole-1-ylmethylcyclopentanol] | 5 (% Mycerial growth inhibition of 80% or higher) | 5 (% Mycerial growth inhibition of 80% or higher) | 5 (% Mycerial growth inhibition of 80% or higher) | 5 (% Mycerial growth inhibition of 80% or higher) | 5 (% Mycerial growth inhibition of 80% or higher) | 5 (% Mycerial growth inhibition of 80% or higher) | 5 (% Mycerial growth inhibition of 80% or higher) | 5 (% Mycerial growth inhibition of 80% or higher) | 5 (% Mycerial growth inhibition of 80% or higher) | 5 (% Mycerial growth inhibition of 80% or higher) | 4 (% Mycerial growth inhibition of less than 80 to 60% or higher) | 5 (% Mycerial growth inhibition of 80% or higher) | 5 (% Mycerial growth inhibition of 80% or higher) | 5 (% Mycerial growth inhibition of 80% or higher) | 5 (% Mycerial growth inhibition of 80% or higher) | 5 (% Mycerial growth inhibition of 80% or higher) | 4 (61 to 80) | 5 (% Mycerial growth inhibition of 80% or higher) | 5 (% Mycerial growth inhibition of 80% or higher) | 5 (% Mycerial growth inhibition of 80% or higher) | Growth inhibition grade F.c ([11]; 5 mg/L): 5 (% Mycerial growth inhibition of 80% or higher); Growth inhibition grade [12]: 5 (% Mycerial growth inhibition of 80% or higher); Growth inhibition grade R. sec ([13]; 1.25 mg/L): 5 (% Mycerial growth inhibition of 80% or higher); Growth inhibition grade R. sec ([13]; 5 mg/L): 5 (% Mycerial growth inhibition of 80% or higher); Growth inhibition grade B.c ([14]; 1.25 mg/L): 5 (% Mycerial growth inhibition of 80% or higher); Growth inhibition grade B.c ([14]; 5 mg/L): 5 (% Mycerial growth inhibition of 80% or higher); Growth inhibition grade P.o ([15]; 1.25 mg/L): 5 (% Mycerial growth inhibition of 80% or higher); Growth inhibition grade P.o ([15]; 5 mg/L): 5 (% Mycerial growth inhibition of 80% or higher)
COC[C@]1(CCl)CC[C@@H](Cc2ccccc2)[C@]1(O)Cn1cncn1 (racemic) [Compound I-187, (1RS,2RS,5SR)-5-benzyl-2-chloromethyl-2-methoxymethyl-1H-[1,2,4]triazole-1-ylmethylcyclopentanol] | 5 (% Mycerial growth inhibition of 80% or higher) | 5 (% Mycerial growth inhibition of 80% or higher) | 5 (% Mycerial growth inhibition of 80% or higher) | 5 (% Mycerial growth inhibition of 80% or higher) | 5 (% Mycerial growth inhibition of 80% or higher) | 5 (% Mycerial growth inhibition of 80% or higher) | 4 (% Mycerial growth inhibition of less than 80 to 60% or higher) | 5 (% Mycerial growth inhibition of 80% or higher) | 5 (% Mycerial growth inhibition of 80% or higher) | 5 (% Mycerial growth inhibition of 80% or higher) | 4 (% Mycerial growth inhibition of less than 80 to 60% or higher) | 5 (% Mycerial growth inhibition of 80% or higher) | 5 (% Mycerial growth inhibition of 80% or higher) | 5 (% Mycerial growth inhibition of 80% or higher) | 5 (% Mycerial growth inhibition of 80% or higher) | 5 (% Mycerial growth inhibition of 80% or higher) | 4 (61 to 80) | 5 (% Mycerial growth inhibition of 80% or higher) | 5 (% Mycerial growth inhibition of 80% or higher) | 5 (% Mycerial growth inhibition of 80% or higher) | Growth inhibition grade F.c ([11]; 5 mg/L): 5 (% Mycerial growth inhibition of 80% or higher); Growth inhibition grade [12]: 5 (% Mycerial growth inhibition of 80% or higher); Growth inhibition grade R. sec ([13]; 1.25 mg/L): 5 (% Mycerial growth inhibition of 80% or higher); Growth inhibition grade R. sec ([13]; 5 mg/L): 5 (% Mycerial growth inhibition of 80% or higher); Growth inhibition grade B.c ([14]; 1.25 mg/L): 5 (% Mycerial growth inhibition of 80% or higher); Growth inhibition grade B.c ([14]; 5 mg/L): 5 (% Mycerial growth inhibition of 80% or higher); Growth inhibition grade P.o ([15]; 1.25 mg/L): 5 (% Mycerial growth inhibition of 80% or higher); Growth inhibition grade P.o ([15]; 5 mg/L): 5 (% Mycerial growth inhibition of 80% or higher)

— patent US9241488B2, “Azole derivative, method for producing azole derivative, and intermediate compound” (KUREHA CORPORATION, priority 2011, dated 2016)
